The record followed here is patent US11390603B2, “Crystalline forms of a biphenyl compound” (THERAVANCE BIOPHARMA R&D IP, LLC, priority 2005, dated 2022).

Molecules are shown by their SMILES.

The subject of the experiment is guinea pigs. In words: Duration of bronchoprotection in guinea pig model of acetylcholine-induced bronchoconstriction. Format: in vivo. The following applies: 1.5 hours post-dose, inhalation. The procedure:
Groups of six male guinea pigs (Duncan-Hartley (HsdPoc:DH) Harlan, Madison, Wis.) weighing between 250 and 350 g are individually identified by cage cards. Throughout the study animals are allowed access to food and water ad libitum.
Test compounds are administered via inhalation over 10 minutes in a whole-body exposure dosing chamber (R&S Molds, San Carlos, Calif.). The dosing chambers are arranged so that an aerosol was simultaneously delivered to 6 individual chambers from a central manifold. Guinea pigs are exposed to an aerosol of a test compound or vehicle (WFI). […] This is measured gravimetrically by comparing pre-and post-nebulization weights of the filled nebulizer.
The bronchoprotective effects of test compounds administered via inhalation are evaluated using whole body plethysmography at 1.5, 24, 48 and 72 hours post-dose.
Forty-five minutes prior to the start of the pulmonary evaluation, each guinea pig is anesthetized with an intramuscular injection of ketamine (43.75 mg/kg), xylazine (3.50 mg/kg) and acepromazine (1.05 mg/kg). […] The depth of anesthesia is monitored and adjusted if the animal responds to pinching of its paw or if the respiration rate is greater than 100 breaths/minute. […]
Starting this program initiates the experimental protocol and data collection. […] By integrating this signal over time, a measurement of […] is calculated for each breath. […]

Regarding `CN(CCN1CCC(OC(=O)Nc2ccccc2-c2ccccc2)CC1)C(=O)c1ccc(CN2CCC(C(N)=O)CC2)cc1` [compound of formula I, biphenyl-2-ylcarbamic acid 1-(2-{[4-(4-carbamoylpiperidin-1-ylmethyl)benzoyl]methylamino}ethyl)piperidin-4-yl ester], the “PD2(50) for ACh-induced bronchoconstriction” value was “less than 200 μg/mL”.
